{"source": "patent US11219596B2", "about": "“Compositions and methods for ophthalmic and/or other applications” (The Johns Hopkins University, priority 2012, dated 2022)", "key": {"[1]": {"assay": "Multiple particle tracking of pyrene nanoparticles milled with PVAs and other surface-altering agents in CVM", "method": "An aqueous dispersion containing pyrene and one of the surface-altering agents listed above was stirred with milling media until particle size was reduced below 500 nm (as measured by dynamic light scattering).\nPrior to quantifying mobility of pyrene particles, their spatial distribution in the mucus sample was assessed visually."}, "[2]": {"assay": "Multiple particle tracking of pyrene/stabilizer nanoparticles in CVM", "method": "Prior to quantifying mobility of the produced pyrene nanoparticles, their spatial distribution in the mucus sample was assessed by microscopy at low magnifications (10×, 40×).\nCVM was collected by inserting a Softcup® menstrual collection cup into the vaginal tract as described by the product literature for between 30 seconds and 2 minutes. After removal the CVM was then collected from the Softcup® by gentle centrifugation at ˜30×G to ˜120×G in a 50 mL centrifuge tube. In Example 1, CVM was used undiluted and fresh (stored for no longer than 7 days under refrigerated conditions). Barrier and transport of all CVM samples used in Example 1 were verified with negative (200 nm carboxylated polystyrene particles) and positive (200 nm polystyrene particles modified with PEG 5K) controls. In Example 2, CVM was lyophilized and reconstituted. In Example 2, mucus was frozen at −50° C. and then lyophilized to dryness. Samples were then stored at −50° C. Before use, the mucus was reconstituted by grinding the solid into a fine powder using a mortar and pestle followed by water addition to a final volume equal to the original volume to 2 times the original volume. The reconstituted mucus was then incubated at 4° C. for 12 hours and used as described in Example 2. Barrier and transport of all CVM samples used in Example 2 were verified with negative (200 nm carboxylated polystyrene particles) and positive (F127 coated 200 nm polystyrene particles) controls."}, "[3]": {"assay_type": "in vitro ADME, human", "source_text": "The mobility of LE nanoparticles from the produced nanosuspensions in fresh undiluted human cervicovaginal mucus (CVM) was characterized by dark-field microscopy using a CytoViva® High Resolution Illumination System which allows visualization of fluorescent and non-fluorescent nano-sized objects. […] Mobility of particles in the movies was scored on a scale from 0 to 3 in order of increasing mobility, in a single-blind experiment by independent observers. The scoring criterion is as follows: 0-0.5 immobile; 0.51-1.5 slightly mobile; 1.51-2.5 moderately mobile; and 2.51-3.0 very mobile."}, "[4]": {"system": "vascular leakage after intravitreal injection of VEGF", "assay": "Rabbit VEGF-challenge model (fluorescein angiography)", "assay_type": "in vivo, Dutch belted rabbits", "settings": "day 6; VEGF intravitreal on day 3; 5% axitinib-MPP 50 μL every 4 hours days 1-6, or one intravitreal Avastin on day 1", "source_text": "On day 3, the rabbits received an intravitreal injection of VEGF. On day 6, the rabbits were accessed for leakage via fluorescein angiography.\nIn this model, Dutch belted rabbits were given an intravitreal injection of VEGF to stimulate vascular growth. Fluorescein angiography was used to determine the degree to which the rabbits developed abnormal vascular and leakage."}, "[5]": {"settings": "pyrene nanoparticles milled with the surface-altering agent, in CVM"}}, "note": "Read-outs that look alike come from different tables or passages of the source."}
{"compound": "Tween 80", "values": [{"measurement": "Sample (relative) <Vmean>rel", "setting": "[1]", "value": 0.17}, {"measurement": "Sample <Vmean>", "setting": "[1]", "value": 0.94, "unit": "um/s"}, {"measurement": "Sample (relative) <Vmean>rel", "setting": "[2]", "value": 0.17}, {"measurement": "Sample <Vmean> (ensemble-average velocity)", "setting": "[2]", "value": 0.94, "unit": "um/s"}]}
{"compound": "Tyloxapol", "values": [{"measurement": "Sample (relative) <Vmean>rel", "setting": "[1]", "value": "−0.02"}, {"measurement": "Sample <Vmean>", "setting": "[1]", "value": 0.42, "unit": "um/s"}, {"measurement": "Sample (relative) <Vmean>rel", "setting": "[2]", "value": "−0.02"}, {"measurement": "Sample <Vmean> (ensemble-average velocity)", "setting": "[2]", "value": 0.42, "unit": "um/s"}]}
{"compound": "CCCCCCCCCCCCCCCC[N+](C)(C)C", "note": "[CTAB, Cetytrimethylammonium bromide]", "values": [{"measurement": "Sample (relative) <Vmean>rel", "setting": "[1]; [5]", "value": "−0.02"}, {"measurement": "Sample <Vmean>", "setting": "[1]; [5]", "value": 0.32, "unit": "um/s"}, {"measurement": "Sample <Vmean> (ensemble-average velocity)", "setting": "[2]; pyrene/stabilizer nanoparticles in CVM", "value": 0.32, "unit": "um/s"}, {"measurement": "Sample (relative) <Vmean>rel", "setting": "[2]; pyrene/stabilizer nanoparticles in CVM, relative to negative and positive controls", "value": "−0.02"}]}
{"compound": "Pluronic F127", "values": [{"measurement": "mobility score in CVM", "setting": "[3]", "value": "> 2.51"}]}
{"compound": "Avastin®: positive control, one intravitreal injection; commonly used off-label to treat AMD", "values": [{"measurement": "retinal vessel growth and leakage (fluorescein angiography)", "setting": "[4]", "value": "no change in retinal vasculature"}]}
{"compound": "Pluronic F68", "values": [{"measurement": "mobility score in CVM", "setting": "[3]", "value": "< 0.50"}]}
{"compound": "Pluronic P123", "values": [{"measurement": "mobility score in CVM", "setting": "[3]", "value": "1.51.-2.50"}]}
